Results taken from ChEMBL document CHEMBL3885861, “Open TG-GATES”.

Species: Rattus norvegicus
Assay: Open TG-GATES - Regimen: Single
Format: toxicity, organism-based, Sprague-Dawley
Set-up: regimen Single, gender Male, age 6 weeks
Details: in vivo, po, route gavage; for gamma-GTP / ALP / ALT / AST / BUN / CRE / Ca / Cl / DBIL / GLC / IP / K / LDH / Na / PL / RALB / TBIL / TC / TG / TP: tissue Plasma; for APTT / Bas / Eos / Hb / Ht / Lym / MCH / MCHC / MCV / Mono / Neu / PT / Plat / RBC / Ret / WBC / Fbg: tissue Blood; for KIDNEY_L / KIDNEY_R / KIDNEY_TOTAL: tissue Kidney; for LIVER: tissue Liver
[1] = 300 mg/kg, 24 h, dose level Low

CCOc1ccc(NC(C)=O)cc1 [PHENACETIN] showed a gamma-GTP (0 mg/kg, 24 h, dose level Control) of 1 IU/L, a TERMINAL_BW (300 mg/kg, 3 h, dose level Low) of 214.8 g and an APTT (300 mg/kg, 3 h, dose level Low) of 17.3 s. The Bas (300 mg/kg, 3 h, dose level Low) was 0.4%, the Eos (300 mg/kg, 3 h, dose level Low) was 1% and the Hb (300 mg/kg, 3 h, dose level Low) was 14.3 g/dL. The Ht (300 mg/kg, 3 h, dose level Low) was 42.8%, the Lym (300 mg/kg, 3 h, dose level Low) was 73.2% and the MCH (300 mg/kg, 3 h, dose level Low) was 20.6 pg. For the same compound, the MCHC (300 mg/kg, 3 h, dose level Low) was 33.3%, the MCV (300 mg/kg, 3 h, dose level Low) was 62.2 fL and the Mono (300 mg/kg, 3 h, dose level Low) was 2.6%. The Neu (300 mg/kg, 3 h, dose level Low) was 22.8%, the PT (300 mg/kg, 3 h, dose level Low) was 14 s and the Plat (300 mg/kg, 3 h, dose level Low) was 134.5 x10_4/uL. The RBC (300 mg/kg, 3 h, dose level Low) was 689.2 x10_4/ul, the Ret (300 mg/kg, 3 h, dose level Low) was 8.6% and the WBC (300 mg/kg, 3 h, dose level Low) was 59.5 x10_2/uL. For the same compound, the KIDNEY_L (300 mg/kg, 3 h, dose level Low) was 1 g, the KIDNEY_R (300 mg/kg, 3 h, dose level Low) was 1 g and the KIDNEY_TOTAL (300 mg/kg, 3 h, dose level Low) was 1.9 g. It also gave an LIVER (300 mg/kg, 3 h, dose level Low) of 9.3 g, an ALP (300 mg/kg, 3 h, dose level Low) of 1454.6 IU/L and an ALT (300 mg/kg, 3 h, dose level Low) of 38.2 IU/L. It also gave an AST (300 mg/kg, 3 h, dose level Low) of 72 IU/L, a BUN (300 mg/kg, 3 h, dose level Low) of 8.4 mg/dL and a CRE (300 mg/kg, 3 h, dose level Low) of 0.2 mg/dL. It also gave a Ca (300 mg/kg, 3 h, dose level Low) of 10.9 mg/dL, a Cl (300 mg/kg, 3 h, dose level Low) of 101 meq/L and a DBIL (300 mg/kg, 3 h, dose level Low) of 0 mg/dL. The GLC (300 mg/kg, 3 h, dose level Low) was 206.6 mg/dL, the IP (300 mg/kg, 3 h, dose level Low) was 11.3 mg/dL and the K (300 mg/kg, 3 h, dose level Low) was 3.7 meq/L. It also gave an LDH (300 mg/kg, 3 h, dose level Low) of 77.4 IU/L, a Na (300 mg/kg, 3 h, dose level Low) of 141.6 meq/L and a PL (300 mg/kg, 3 h, dose level Low) of 152.4 mg/dL. The RALB (300 mg/kg, 3 h, dose level Low) was 2.6 g/dL, the TBIL (300 mg/kg, 3 h, dose level Low) was 0.034 mg/dL and the TC (300 mg/kg, 3 h, dose level Low) was 83.2 mg/dL. It also gave a TG (300 mg/kg, 3 h, dose level Low) of 78.2 mg/dL, a TP (300 mg/kg, 3 h, dose level Low) of 5.7 g/dL and a gamma-GTP (300 mg/kg, 3 h, dose level Low) of 1.4 IU/L. It also gave a TERMINAL_BW (300 mg/kg, 6 h, dose level Low) of 205.3 g, an APTT (300 mg/kg, 6 h, dose level Low) of 16.7 s and a Bas (300 mg/kg, 6 h, dose level Low) of 0%. It also gave an Eos (300 mg/kg, 6 h, dose level Low) of 0.2%, a Fbg (300 mg/kg, 6 h, dose level Low) of 332.4 mg/dL and a Ht (300 mg/kg, 6 h, dose level Low) of 43.8%. It also gave a Lym (300 mg/kg, 6 h, dose level Low) of 74%, an MCH (300 mg/kg, 6 h, dose level Low) of 21.2 pg and an MCHC (300 mg/kg, 6 h, dose level Low) of 33.7%. It also gave an MCV (300 mg/kg, 6 h, dose level Low) of 62.9 fL, a Mono (300 mg/kg, 6 h, dose level Low) of 2.4% and a PT (300 mg/kg, 6 h, dose level Low) of 14.2 s. For the same compound, the Plat (300 mg/kg, 6 h, dose level Low) was 124.8 x10_4/uL, the RBC (300 mg/kg, 6 h, dose level Low) was 696 x10_4/ul and the Ret (300 mg/kg, 6 h, dose level Low) was 8.3%. The WBC (300 mg/kg, 6 h, dose level Low) was 66.9 x10_2/uL, the KIDNEY_L (300 mg/kg, 6 h, dose level Low) was 1 g and the KIDNEY_R (300 mg/kg, 6 h, dose level Low) was 0.9 g. For the same compound, the KIDNEY_TOTAL (300 mg/kg, 6 h, dose level Low) was 1.9 g, the LIVER (300 mg/kg, 6 h, dose level Low) was 9.1 g and the ALP (300 mg/kg, 6 h, dose level Low) was 1428.2 IU/L. For the same compound, the ALT (300 mg/kg, 6 h, dose level Low) was 39 IU/L, the AST (300 mg/kg, 6 h, dose level Low) was 71.2 IU/L and the BUN (300 mg/kg, 6 h, dose level Low) was 9.6 mg/dL. The CRE (300 mg/kg, 6 h, dose level Low) was 0.1 mg/dL, the Ca (300 mg/kg, 6 h, dose level Low) was 11.1 mg/dL and the Cl (300 mg/kg, 6 h, dose level Low) was 101.2 meq/L. For the same compound, the DBIL (300 mg/kg, 6 h, dose level Low) was 0 mg/dL, the GLC (300 mg/kg, 6 h, dose level Low) was 198.4 mg/dL and the IP (300 mg/kg, 6 h, dose level Low) was 10.1 mg/dL. For the same compound, the K (300 mg/kg, 6 h, dose level Low) was 3.7 meq/L, the LDH (300 mg/kg, 6 h, dose level Low) was 80.4 IU/L and the Na (300 mg/kg, 6 h, dose level Low) was 140.4 meq/L. For the same compound, the PL (300 mg/kg, 6 h, dose level Low) was 152.6 mg/dL, the RALB (300 mg/kg, 6 h, dose level Low) was 2.7 g/dL and the TBIL (300 mg/kg, 6 h, dose level Low) was 0.046 mg/dL. It also gave a TC (300 mg/kg, 6 h, dose level Low) of 94.2 mg/dL, a TG (300 mg/kg, 6 h, dose level Low) of 35.6 mg/dL and a TP (300 mg/kg, 6 h, dose level Low) of 5.8 g/dL. For the same compound, the gamma-GTP (300 mg/kg, 6 h, dose level Low) was 1 IU/L, the TERMINAL_BW (300 mg/kg, 9 h, dose level Low) was 204.1 g and the APTT (300 mg/kg, 9 h, dose level Low) was 17.8 s. The Bas (300 mg/kg, 9 h, dose level Low) was 0%, the Eos (300 mg/kg, 9 h, dose level Low) was 0.6% and the Fbg (300 mg/kg, 9 h, dose level Low) was 313.2 mg/dL. For the same compound, the Hb (300 mg/kg, 9 h, dose level Low) was 14.4 g/dL, the Ht (300 mg/kg, 9 h, dose level Low) was 42.3% and the Lym (300 mg/kg, 9 h, dose level Low) was 72.2%. The MCH (300 mg/kg, 9 h, dose level Low) was 21 pg, the MCV (300 mg/kg, 9 h, dose level Low) was 61.6 fL and the Mono (300 mg/kg, 9 h, dose level Low) was 4.2%. It also gave a Neu (300 mg/kg, 9 h, dose level Low) of 22.2%, a PT (300 mg/kg, 9 h, dose level Low) of 13.9 s and a Plat (300 mg/kg, 9 h, dose level Low) of 119.6 x10_4/uL. It also gave an RBC (300 mg/kg, 9 h, dose level Low) of 686.6 x10_4/ul, a Ret (300 mg/kg, 9 h, dose level Low) of 8.4% and a WBC (300 mg/kg, 9 h, dose level Low) of 60.7 x10_2/uL. For the same compound, the KIDNEY_L (300 mg/kg, 9 h, dose level Low) was 0.9 g, the KIDNEY_R (300 mg/kg, 9 h, dose level Low) was 0.9 g and the KIDNEY_TOTAL (300 mg/kg, 9 h, dose level Low) was 1.8 g. The LIVER (300 mg/kg, 9 h, dose level Low) was 8.5 g, the ALP (300 mg/kg, 9 h, dose level Low) was 1326.6 IU/L and the ALT (300 mg/kg, 9 h, dose level Low) was 33.4 IU/L. For the same compound, the AST (300 mg/kg, 9 h, dose level Low) was 65.4 IU/L, the BUN (300 mg/kg, 9 h, dose level Low) was 11.6 mg/dL and the CRE (300 mg/kg, 9 h, dose level Low) was 0.2 mg/dL. It also gave a Ca (300 mg/kg, 9 h, dose level Low) of 11.1 mg/dL, a Cl (300 mg/kg, 9 h, dose level Low) of 99 meq/L and a DBIL (300 mg/kg, 9 h, dose level Low) of 0.008 mg/dL. It also gave a GLC (300 mg/kg, 9 h, dose level Low) of 210.8 mg/dL, an IP (300 mg/kg, 9 h, dose level Low) of 8.8 mg/dL and a K (300 mg/kg, 9 h, dose level Low) of 4 meq/L. The LDH (300 mg/kg, 9 h, dose level Low) was 93 IU/L, the Na (300 mg/kg, 9 h, dose level Low) was 139 meq/L and the PL (300 mg/kg, 9 h, dose level Low) was 163.2 mg/dL. For the same compound, the RALB (300 mg/kg, 9 h, dose level Low) was 2.7 g/dL, the TBIL (300 mg/kg, 9 h, dose level Low) was 0.062 mg/dL and the TC (300 mg/kg, 9 h, dose level Low) was 94.8 mg/dL. For the same compound, the TG (300 mg/kg, 9 h, dose level Low) was 50.6 mg/dL, the TP (300 mg/kg, 9 h, dose level Low) was 5.8 g/dL and the gamma-GTP (300 mg/kg, 9 h, dose level Low) was 1.4 IU/L. It also gave a TERMINAL_BW [1] of 210.4 g, an APTT [1] of 16.7 s and a Bas [1] of 0%. For the same compound, the Eos [1] was 1%, the Fbg [1] was 297.4 mg/dL and the Hb [1] was 13.9 g/dL. For the same compound, the Ht [1] was 41.5%, the Lym [1] was 77.4% and the MCH [1] was 20.7 pg. The MCHC [1] was 33.4%, the MCV [1] was 62.2 fL and the Mono [1] was 2.6%. For the same compound, the Neu [1] was 18.6%, the PT [1] was 14.1 s and the Plat [1] was 126.5 x10_4/uL. It also gave an RBC [1] of 668.8 x10_4/ul, a Ret [1] of 7.5% and a WBC [1] of 86.4 x10_2/uL. It also gave a KIDNEY_L [1] of 1 g, a KIDNEY_R [1] of 1 g and a KIDNEY_TOTAL [1] of 1.9 g. It also gave an LIVER [1] of 9.2 g, an ALP [1] of 1966 IU/L and an ALT [1] of 44.4 IU/L. It also gave an AST [1] of 83 IU/L, a BUN [1] of 14.4 mg/dL and a CRE [1] of 0.2 mg/dL. For the same compound, the Ca [1] was 11.1 mg/dL, the Cl [1] was 105 meq/L and the DBIL [1] was 0.01 mg/dL. The GLC [1] was 168.6 mg/dL, the IP [1] was 7.7 mg/dL and the K [1] was 4.4 meq/L. The LDH [1] was 149.6 IU/L, the Na [1] was 144 meq/L and the PL [1] was 166 mg/dL. The RALB [1] was 2.6 g/dL, the TBIL [1] was 0.05 mg/dL and the TC [1] was 87.8 mg/dL. For the same compound, the TG [1] was 84.4 mg/dL.
